Values after ≈ are worked out from the molar mass of the structure shown.
How the values were obtained:
Assay type in all cases: functional
[1] = system: Enterobacter cloacae; assay: Minimum inhibitory concentration required for antibacterial activity against Enterobacter cloacae CL 4298 strain
[2] = system: Escherichia coli; assay: Minimum inhibitory concentration required for antibacterial activity against Escherichia coli MB 2884 strain
[3] = system: Enterococcus faecalis; assay: Minimum inhibitory concentration required for antibacterial activity against Enterococcus faecalis MB 5407 strain
[4] = system: Haemophilus influenzae; assay: Minimum inhibitory concentration required for antibacterial activity against Haemophilus influenzae CL 1830 strain
[5] = system: Haemophilus influenzae; assay: Minimum inhibitory concentration required for antibacterial activity against Haemophilus influenzae MB 5363 strain
[6] = system: Klebsiella pneumoniae; assay: Minimum inhibitory concentration required for antibacterial activity against Klebsiella pneumoniae MB 4005 strain
[7] = system: Staphylococcus aureus; assay: Minimum inhibitory concentration required for antibacterial activity against Staphylococcus aureus MB 2865 strain
[8] = system: Staphylococcus epidermidis; assay: Minimum inhibitory concentration required for antibacterial activity against Staphylococcus epidermidis MB 5414 strain
[9] = system: Streptococcus pyogenes; assay: Minimum inhibitory concentration required for antibacterial activity against Streptococcus pyogenes MB 2874 strain
[10] = system: Streptococcus pneumoniae; assay: Minimum inhibitory concentration required for antibacterial activity against Streptococcus pneumoniae CL 2883 strain
[11] = system: Enterobacter cloacae; assay: Minimum inhibitory concentration required for antibacterial activity against Enterobacter cloacae CL 4298 strain;value ranges from 32-64
[12] = system: Escherichia coli; assay: Minimum inhibitory concentration required for antibacterial activity against Escherichia coli MB 2884 strain;value ranges from 16-64
[13] = system: Enterococcus faecalis; assay: Minimum inhibitory concentration required for antibacterial activity against Enterococcus faecalis MB 5407 strain;value ranges from 1-2
[14] = system: Haemophilus influenzae; assay: Minimum inhibitory concentration required for antibacterial activity against Haemophilus influenzae CL 1830 strain;value ranges from 64-128
[15] = system: Haemophilus influenzae; assay: Minimum inhibitory concentration required for antibacterial activity against Haemophilus influenzae MB 5363 strain;value ranges from 2-4
[16] = system: Klebsiella pneumoniae; assay: Minimum inhibitory concentration required for antibacterial activity against Klebsiella pneumoniae MB 4005 strain;value ranges from 32-64
[17] = system: Staphylococcus aureus; assay: microbe, parasite or virus in culture
[18] = system: Escherichia coli; assay: Minimum inhibitory concentration required for antibacterial activity against Escherichia coli MB 2884 strain;value ranges from 1-2
[19] = system: Haemophilus influenzae; assay: Minimum inhibitory concentration required for antibacterial activity against Haemophilus influenzae CL 1830 strain;value ranges from 4-16
[20] = system: Haemophilus influenzae; assay: Minimum inhibitory concentration required for antibacterial activity against Haemophilus influenzae MB 5363 strain;value ranges from 0.5-2
[21] = system: Staphylococcus aureus; assay: Minimum inhibitory concentration required for antibacterial activity against Staphylococcus aureus MB 2865 strain;value ranges from 0.25-1
[22] = system: Staphylococcus epidermidis; assay: Minimum inhibitory concentration required for antibacterial activity against Staphylococcus epidermidis MB 5414 strain;value ranges from 0.25-0.5
[23] = system: Klebsiella pneumoniae; assay: Minimum inhibitory concentration required for antibacterial activity against Klebsiella pneumoniae MB 4005 strain;value ranges from 1-2
[24] = system: Haemophilus influenzae; assay: Minimum inhibitory concentration required for antibacterial activity against Haemophilus influenzae CL 1830 strain;value ranges from 8-16
[25] = system: Staphylococcus aureus; assay: Minimum inhibitory concentration required for antibacterial activity against Staphylococcus aureus MB 2865 strain;value ranges from 0.5-1
[26] = system: Enterococcus faecalis; assay: Minimum inhibitory concentration required for antibacterial activity against Enterococcus faecalis MB 5407 strain;value ranges from 4-8
[27] = system: Staphylococcus aureus; assay: Minimum inhibitory concentration required for antibacterial activity against Staphylococcus aureus MB 2865 strain;value ranges from 32-64
[28] = system: Staphylococcus epidermidis; assay: Minimum inhibitory concentration required for antibacterial activity against Staphylococcus epidermidis MB 5414 strain;value ranges from 16-128

CC[C@H]1OC(=O)[C@H](C)[C@@H](O[C@H]2C[C@@](C)(OC)[C@@H](O)[C@H](C)O2)[C@H](C)[C@@H](O[C@@H]2O[C@H](C)C[C@H](N(C)C)[C@H]2O)[C@](C)(O)C[C@@H](C)/N=C2/O[C@@]1(C)[C@H](O)[C@H]2C
MIC [1]: 128 µg/mL (≈ 175 µM) | MIC [2]: 128 µg/mL (≈ 175 µM) | MIC [3]: > 128 µg/mL | MIC [4]: > 128 µg/mL | MIC [5]: 64 µg/mL (≈ 87.6 µM) | MIC [6]: > 128 µg/mL | MIC [7]: 16 µg/mL (≈ 21.9 µM) | MIC [8]: 16 µg/mL (≈ 21.9 µM) | MIC [9]: 2 µg/mL (≈ 2.74 µM) | MIC [10]: 4 µg/mL (≈ 5.47 µM)

CC[C@H]1OC(=O)[C@H](C)[C@@H](O[C@H]2C[C@@](C)(OC)[C@@H](O)[C@H](C)O2)[C@H](C)[C@@H](O[C@@H]2O[C@H](C)C[C@H](N(C)C)[C@H]2O)[C@](C)(O)C[C@@H](C)C(=O)[C@H](C)[C@@H](O)[C@]1(C)O [ERYTHROMYCIN]
MIC [11]: 32 µg/mL (≈ 43.6 µM) | MIC [12]: 16 µg/mL (≈ 21.8 µM) | MIC [13]: 1 µg/mL (≈ 1.36 µM) | MIC [14]: 64 µg/mL (≈ 87.2 µM) | MIC [15]: 2 µg/mL (≈ 2.73 µM) | MIC [16]: 32 µg/mL (≈ 43.6 µM) | MIC [17]: 0.125 µg/mL (≈ 0.17 µM) | MIC [8]: 0.125 µg/mL (≈ 0.17 µM) | MIC [9]: ≤ 0.06 µg/mL | MIC [10]: ≤ 0.06 µg/mL

CC[C@H]1OC(=O)[C@H](C)[C@@H](O[C@H]2C[C@@](C)(OC)[C@@H](O)[C@H](C)O2)[C@H](C)[C@@H](O[C@@H]2O[C@H](C)C[C@H](N(C)C)[C@H]2O)[C@](C)(O)C[C@@H](C)N(C)C[C@H](C)[C@@H](O)[C@]1(C)O [L-701677]
MIC [1]: 1 µg/mL (≈ 1.34 µM) | MIC [18]: 1 µg/mL (≈ 1.34 µM) | MIC [3]: 2 µg/mL (≈ 2.67 µM) | MIC [19]: 4 µg/mL (≈ 5.34 µM) | MIC [20]: 0.5 µg/mL (≈ 0.668 µM) | MIC [21]: 0.25 µg/mL (≈ 0.334 µM) | MIC [22]: 0.25 µg/mL (≈ 0.334 µM) | MIC [9]: ≤ 0.06 µg/mL | MIC [10]: ≤ 0.06 µg/mL | MIC [23]: 1 µg/mL (≈ 1.34 µM)

CC[C@H]1OC(=O)[C@H](C)[C@@H](O[C@H]2C[C@@](C)(OC)[C@@H](O)[C@H](C)O2)[C@H](C)[C@@H](O[C@@H]2O[C@H](C)C[C@H](N(C)C)[C@H]2O)[C@](C)(O)C[C@@H](C)CN(C)[C@H](C)[C@@H](O)[C@]1(C)O [AZITHROMYCIN]
MIC [1]: 1 µg/mL (≈ 1.34 µM) | MIC [18]: 1 µg/mL (≈ 1.34 µM) | MIC [24]: 8 µg/mL (≈ 10.7 µM) | MIC [20]: 0.5 µg/mL (≈ 0.668 µM) | MIC [22]: 0.25 µg/mL (≈ 0.334 µM) | MIC [9]: ≤ 0.06 µg/mL | MIC [10]: ≤ 0.06 µg/mL | MIC [25]: 0.5 µg/mL (≈ 0.668 µM) | MIC [26]: 4 µg/mL (≈ 5.34 µM) | MIC [23]: 1 µg/mL (≈ 1.34 µM)

CC[C@H]1OC(=O)[C@H](C)[C@@H](O[C@H]2C[C@@](C)(OC)[C@@H](O)[C@H](C)O2)[C@H](C)[C@@H](O[C@@H]2O[C@H](C)C[C@H](N(C)C)[C@H]2O)[C@@]2(C)C[C@@H](C)N=C(O2)[C@H](C)[C@@H](O)[C@]1(C)O
MIC [1]: 128 µg/mL (≈ 175 µM) | MIC [2]: 128 µg/mL (≈ 175 µM) | MIC [3]: 16 µg/mL (≈ 21.9 µM) | MIC [4]: > 128 µg/mL | MIC [5]: 64 µg/mL (≈ 87.6 µM) | MIC [6]: > 128 µg/mL | MIC [27]: 32 µg/mL (≈ 43.8 µM) | MIC [28]: 16 µg/mL (≈ 21.9 µM) | MIC [9]: 0.5 µg/mL (≈ 0.684 µM) | MIC [10]: 2 µg/mL (≈ 2.74 µM)

CC[C@H]1OC(=O)[C@H](C)[C@@H](O[C@H]2C[C@@](C)(OC)[C@@H](O)[C@H](C)O2)[C@H](C)[C@@H](O[C@@H]2O[C@H](C)C[C@H](N(C)C)[C@H]2O)[C@](C)(O)C[C@@H](C)NC[C@H](C)[C@@H](O)[C@]1(C)O
MIC [1]: 4 µg/mL (≈ 5.44 µM) | MIC [2]: 2 µg/mL (≈ 2.72 µM) | MIC [3]: 4 µg/mL (≈ 5.44 µM) | MIC [4]: 32 µg/mL (≈ 43.5 µM) | MIC [5]: 4 µg/mL (≈ 5.44 µM) | MIC [6]: 4 µg/mL (≈ 5.44 µM) | MIC [8]: 0.5 µg/mL (≈ 0.68 µM) | MIC [9]: ≤ 0.06 µg/mL | MIC [10]: ≤ 0.06 µg/mL | MIC [25]: 0.5 µg/mL (≈ 0.68 µM)

CC[C@H]1OC(=O)[C@H](C)[C@@H](O[C@H]2C[C@@](C)(OC)[C@@H](O)[C@H](C)O2)[C@H](C)[C@@H](O[C@@H]2O[C@H](C)C[C@H](N(C)C)[C@H]2O)[C@](C)(O)C[C@@H](C)NC(=O)[C@H](C)[C@@H](O)[C@]1(C)O
MIC [2]: 16 µg/mL (≈ 21.4 µM) | MIC [3]: 8 µg/mL (≈ 10.7 µM) | MIC [5]: 32 µg/mL (≈ 42.7 µM) | MIC [6]: 32 µg/mL (≈ 42.7 µM) | MIC [7]: 0.5 µg/mL (≈ 0.668 µM) | MIC [8]: 0.5 µg/mL (≈ 0.668 µM) | MIC [9]: ≤ 0.06 µg/mL | MIC [10]: ≤ 0.06 µg/mL

From ChEMBL document CHEMBL1126507, “The synthesis of novel 8a-aza-8a-homoerythromycin derivatives via the beckmann rearrangement of (9z)-erythromycin a oxime” (1993)
